# Experimental data published in US20250177530A1, “MOLECULES THAT BIND TO ENPP1 POLYPEPTIDES” (UNIVERSITY OF PITTSBURGH - OF THE COMMONWEALTH SYSTEM OF …, priority 2022, published 2025).
# Non-standard residues stand in square brackets, D forms with d. Residues, ends and D or L forms follow the SMILES beside them. *: point of attachment. Dolaproine = CO[C@@H]([C@@H]1CCCN1)[C@@H](C)C(=O)O; Dil = CC[C@H](C)[C@H](NC)[C@@H](CC(=O)O)OC; X1 = C[C@@H](N*)[C@@H](O)c1ccccc1; NMeV = CN[C@H](C(=O)O)C(C)C
# Key:
# Assay in all cases: ADC cytotoxicity (Cell Titer-Glo cell viability)
# Format in all cases: cell-based
# 293T cells = tested on: 293T cells
# Description: (§1) The cell-killing activity of anti-ENPP1 CAR^+ T cells and BiTEs were measured by LDH-Glo cytotoxicity assay kit (Promega, Madison, WI, USA). For the cell-killing activity of anti-ENPP1 CAR^+ T cells, control T cells or CAR^+ T cells as effector cells were incubated with 293T, 293T-ENPP1, and HepG2 target cells (5×10^3 cells/well in 96-well plate) separately at indicated E:T ratio for 24 hours at 37° C. For the cell-killing activity of BiTEs, target cells (1×10^4 cells/well) were mixed with serially diluted BiTEs in 50 μL of growth medium, and […] activated T cells were added at the ET ratio 10:1 and cultured for 24 hours at 37° C. in 5% CO2 humidified atmosphere. Controls for the calculation of percentage cytotoxicity were performed according to the manufacturer's instructions. The calculation of relative % cytotoxicity as follows: relative % cytotoxicity=100×(Experimental LDH release-medium background)/(target and effector maximum LDH release control-medium background). For the cell-killing activity of ADC, 293T, 293T-ENPP1, and HepG2 cells were seeded at 2000 cells/well in 96-well white plate and incubated overnight at 37° C. in 5% CO2. Serial diluted anti-ENPP1 ADC was added and cultured for 4 days at 37° C. in 5% CO2. Images were captured under a 4×objective microscope (Olympus microscope, Westborough, MA, USA). Controls with cells only were used for calculation of percent relative cell viability. At the end of the time point, the Cell Titer-Glo Luminescent cell viability assay kit (Promega) was used to measure the cell viability. The calculation of % Relative cell viability was as follows: % Relative cell viability=100×(Experimental luminescence values-medium Background)/(Control luminescence values-medium Background). For ADCC, the ADCC reporter bioassay complete kit (Promega) was used, the experiment was performed following the manufacturer's instructions. The 293T-ENPP1 cell line was used as target cell.
# 293T-ENPP1 cells = tested on: 293T-ENPP1 cells
# Description: as §1
# HepG2 cells = details: 200 nM
# Description: as §1
smiles,measurement,setting,value
"CC[C@H](C)[C@@H]([C@@H](CC(=O)N1CCC[C@H]1[C@H](OC)[C@@H](C)C(=O)N[C@H](C)[C@@H](O)c1ccccc1)OC)N(C)C(=O)[C@@H](NC(=O)[C@@H](NC)C(C)C)C(C)C [MMAE, monomethyl auristatin E, reference compound] (H-[NMeV]V[Dil][Dolaproine]-X1)",killing at 200 nM,293T cells; 200 nM,non-specific killing
same,killing at lower concentrations,293T cells; concentrations below 200 nM,no non-specific killing
same,killing at 200 nM,293T-ENPP1 cells,non-specific killing
same,killing effects of free MMAE and ADC compared,HepG2 cells,comparable
